This passage reports inhibition and Papp results from patent publication US10786485B1, “Charged ion channel blockers and methods for use” (Nocion Therapeutics, Inc., priority 2019, dated 2020).

Series [1] deals with T1, NaV1.7 (Homo sapiens, UniProt Q15858).
T1 construct: expressed in transfected cells; host or cells: tetracycline-inducible cell line kept under hygromycin and blasticidin
Kind of series: Whole cell patch clamp, internal block of Nav1.7 current. As to conditions: test concentration of 10 μM; compound dissolved in internal solution; 5 Hz stimulation; read-out: Nav1.7 intracellular inhibition. Format: cell-based. The method, then: NaV1.7 was expressed upon induction with tetracycline. Cells were cultured in DMEM containing 10% dialyzed Fetal Bovine Serum (VWR, Radnor, Pa.), 1% Glutamax (VWR, Radnor, Pa.), 1% Penicillin-Streptomycin (VWR, Radnor, Pa.), 100 mg/L Hygromycin (Thermo Fisher Scientific, Waltham, Mass. and 5 mg/L Blasticidin (Alfa Aesar, Haverhill, Mass.). Cells were grown and maintained at 37° C. in a humidified environment containing 10% CO2 in air. Cells were detached from the culture flask for passage and harvested using 0.05% Trypsin-EDTA (Thermo Fisher Scientific, Waltham, Mass.). To induce NaV1.7, cells were induced with tetracycline (0.1-1 μg/mL, IBI Scientific, Peosta, Iowa) the day before recording and plated onto 24-well plates. […] For one 24-well plate, 2 mL of cell suspension was mixed with 23 mL of fresh growth media and 0.1-1 μg/mL tetracycline added. 1 ml of mixed media with cells was then added to each well of a 24-well plate, with a 12 mm coverslip already placed in the bottom of the well. Cells were then incubated in 37° C. and 10% CO2 overnight. The intracellular solution contained the following (in mM) CsCl 135, NaCl 10, EGTA 10, HEPES 10, MgCl2 2, adjusted to pH 7.2 with CsOH. The external solution was a normal Ringer solution containing (in mM) NaCl 155, HEPES 10, glucose 10, KCl 3.5, CaCl2 1.5, MgCl2 1 adjusted to pH 7.4 with NaOH. CsCl is from Alfa Aesar, Haverhill, Mass. All other chemicals are from Sigma-Aldrich, St. Louis, Mo. In order to test the degree of internal block by test compounds the compounds were dissolved in internal solution at the indicated test concentration. […] In order to test the degree of external block by test compounds the compounds were dissolved in external solution at the indicated test concentration. 18-24 hours after cells were induced with tetracycline, coverslips were placed into a chamber filled with Normal Ringer solution at room temperature and the chamber placed on a microscope. Pipettes were pulled from borosilicate glass on a P97 puller (Sutter Instrument, Novato, Calif.) and polished with a MF-830 Microforge (Narishige International USA, Inc, Amityville, N.Y.) to have a resistance of 1.5-2.5 MΩ when filled with CsCl internal solution at room temperature. Healthy cells (those that are round and translucent with no visible blemishes) were chosen for seal formation. A seal was formed between the pipette and the cell, and a brief pulse of suction was used to “break in” and establish the whole-cell configuration. The membrane potential was held at −100 mV before the voltage protocol began. Only cells with series resistance between 1.5-5 MΩ were retained for analysis. The voltage protocol was as follows: Cells were held at −100 mV for 12 ms followed by a hyperpolarizing step to −105 mV for 12 ms to monitor the leak. Cells were then stepped back to −100 mV for 40 ms. Cells were then depolarized to −20 mV for 10 ms and then returned to −100 mV for 26 ms (The FIGURE). Once the recording was started, the voltage protocol was run at 30 second intervals for 5 minutes to get a stable baseline. […] Currents were recorded using PatchMaster software with Heka EPC10 (HEKA Electronics, Lambrecht, Germany). […] The data was plotted using the Patchmaster software (HEKA Electronics, Lambrecht, Germany) and analyzed by plotting the minimum current during the voltage step to −20 mV (peak inward current) as a function of time. […]
On the technique in general: The patch-clamp technique gives a direct electrical read-out from membranes.

Series [2] addresses T1, NaV1.7. Kind of series: Whole cell patch clamp, external block of Nav1.7 current. In kind it is cell-based. As to conditions: test concentration of 30 μM; compound in external solution for 5 minutes; 5 Hz stimulation; read-out: Nav1.7 extracellular inhibition. How it is done:
NaV1.7 was expressed upon induction with tetracycline. Cells were cultured in DMEM containing 10% dialyzed Fetal Bovine Serum (VWR, Radnor, Pa.), 1% Glutamax (VWR, Radnor, Pa.), 1% Penicillin-Streptomycin (VWR, Radnor, Pa.), 100 mg/L Hygromycin (Thermo Fisher Scientific, Waltham, Mass. and 5 mg/L Blasticidin (Alfa Aesar, Haverhill, Mass.). Cells were grown and maintained at 37° C. in a humidified environment containing 10% CO2 in air. Cells were detached from the culture flask for passage and harvested using 0.05% Trypsin-EDTA (Thermo Fisher Scientific, Waltham, Mass.). To induce NaV1.7, cells were induced with tetracycline (0.1-1 μg/mL, IBI Scientific, Peosta, Iowa) the day before recording and plated onto 24-well plates. […] For one 24-well plate, 2 mL of cell suspension was mixed with 23 mL of fresh growth media and 0.1-1 μg/mL tetracycline added. 1 ml of mixed media with cells was then added to each well of a 24-well plate, with a 12 mm coverslip already placed in the bottom of the well. Cells were then incubated in 37° C. and 10% CO2 overnight. The intracellular solution contained the following (in mM) CsCl 135, NaCl 10, EGTA 10, HEPES 10, MgCl2 2, adjusted to pH 7.2 with CsOH. The external solution was a normal Ringer solution containing (in mM) NaCl 155, HEPES 10, glucose 10, KCl 3.5, CaCl2 1.5, MgCl2 1 adjusted to pH 7.4 with NaOH. CsCl is from Alfa Aesar, Haverhill, Mass. All other chemicals are from Sigma-Aldrich, St. Louis, Mo. In order to test the degree of internal block by test compounds the compounds were dissolved in internal solution at the indicated test concentration. […] In order to test the degree of external block by test compounds the compounds were dissolved in external solution at the indicated test concentration. 18-24 hours after cells were induced with tetracycline, coverslips were placed into a chamber filled with Normal Ringer solution at room temperature and the chamber placed on a microscope. Pipettes were pulled from borosilicate glass on a P97 puller (Sutter Instrument, Novato, Calif.) and polished with a MF-830 Microforge (Narishige International USA, Inc, Amityville, N.Y.) to have a resistance of 1.5-2.5 MΩ when filled with CsCl internal solution at room temperature. Healthy cells (those that are round and translucent with no visible blemishes) were chosen for seal formation. A seal was formed between the pipette and the cell, and a brief pulse of suction was used to “break in” and establish the whole-cell configuration. The membrane potential was held at −100 mV before the voltage protocol began. Only cells with series resistance between 1.5-5 MΩ were retained for analysis. The voltage protocol was as follows: Cells were held at −100 mV for 12 ms followed by a hyperpolarizing step to −105 mV for 12 ms to monitor the leak. Cells were then stepped back to −100 mV for 40 ms. Cells were then depolarized to −20 mV for 10 ms and then returned to −100 mV for 26 ms (The FIGURE). Once the recording was started, the voltage protocol was run at 30 second intervals for 5 minutes to get a stable baseline. This is followed by 5 Hz stimulation of the same voltage protocol run until the end of experiment. […] Currents were recorded using PatchMaster software with Heka EPC10 (HEKA Electronics, Lambrecht, Germany). […] The data was plotted using the Patchmaster software (HEKA Electronics, Lambrecht, Germany) and analyzed by plotting the minimum current during the voltage step to −20 mV (peak inward current) as a function of time. […]

Series [3] is described as follows: PAMPA membrane permeability assay. In kind it is in vitro ADME. Particulars: GIT lipid, buffer pH 7.4, incubated 4 hours. The method, then: The PAMPA assay (pION, Inc., Woburn Mass.) was used to determine the ability of compounds of the invention to cross an artificial lipid membrane by passive diffusion. Test compounds were dissolved in DMSO (10 mM) and diluted 200-fold in buffer (pION Inc., pH 7.4) to provide 50 uM stock solutions. Buffer (150 μL) was added to a UV blank plate and stock solutions (150 μL) were transferred to a UV reference plate. The blank and reference spectrum were read using a spectrophotometer. Stock solutions (200 μL) were added to the donor plate of the PAMPA sandwich plate and an accept plate painted with GIT lipid (pION Inc, 5 μL) was placed on top. Buffer (200 μL) was added to the acceptor plate and the PAMPA sandwich plate was incubated for 4 hours. Aliquots (150 μL) from the acceptor plate were added to a UV plate and read as acceptor spectrum. Aliquots (150 μL) of the donor solutions were added to a UV analysis plate and read as donor spectrum. The permeability coefficient of test compounds was calculated using PAMPA Explorer™ software (version 3.5.0.4) based on the AUC of the reference plate, the donor plate, and the acceptor plate.
On the technique in general: The PAMPA barrier holds no transporters, so it reflects passive diffusion.

Where a name gives a salt, the structure may show the parent alone.

What is called inhibition is the change of the read-out against control, counted positive when it falls. Usually Papp stands for a coefficient for how fast a substance crosses the barrier.

T1 sequence (Q15858 whole entry): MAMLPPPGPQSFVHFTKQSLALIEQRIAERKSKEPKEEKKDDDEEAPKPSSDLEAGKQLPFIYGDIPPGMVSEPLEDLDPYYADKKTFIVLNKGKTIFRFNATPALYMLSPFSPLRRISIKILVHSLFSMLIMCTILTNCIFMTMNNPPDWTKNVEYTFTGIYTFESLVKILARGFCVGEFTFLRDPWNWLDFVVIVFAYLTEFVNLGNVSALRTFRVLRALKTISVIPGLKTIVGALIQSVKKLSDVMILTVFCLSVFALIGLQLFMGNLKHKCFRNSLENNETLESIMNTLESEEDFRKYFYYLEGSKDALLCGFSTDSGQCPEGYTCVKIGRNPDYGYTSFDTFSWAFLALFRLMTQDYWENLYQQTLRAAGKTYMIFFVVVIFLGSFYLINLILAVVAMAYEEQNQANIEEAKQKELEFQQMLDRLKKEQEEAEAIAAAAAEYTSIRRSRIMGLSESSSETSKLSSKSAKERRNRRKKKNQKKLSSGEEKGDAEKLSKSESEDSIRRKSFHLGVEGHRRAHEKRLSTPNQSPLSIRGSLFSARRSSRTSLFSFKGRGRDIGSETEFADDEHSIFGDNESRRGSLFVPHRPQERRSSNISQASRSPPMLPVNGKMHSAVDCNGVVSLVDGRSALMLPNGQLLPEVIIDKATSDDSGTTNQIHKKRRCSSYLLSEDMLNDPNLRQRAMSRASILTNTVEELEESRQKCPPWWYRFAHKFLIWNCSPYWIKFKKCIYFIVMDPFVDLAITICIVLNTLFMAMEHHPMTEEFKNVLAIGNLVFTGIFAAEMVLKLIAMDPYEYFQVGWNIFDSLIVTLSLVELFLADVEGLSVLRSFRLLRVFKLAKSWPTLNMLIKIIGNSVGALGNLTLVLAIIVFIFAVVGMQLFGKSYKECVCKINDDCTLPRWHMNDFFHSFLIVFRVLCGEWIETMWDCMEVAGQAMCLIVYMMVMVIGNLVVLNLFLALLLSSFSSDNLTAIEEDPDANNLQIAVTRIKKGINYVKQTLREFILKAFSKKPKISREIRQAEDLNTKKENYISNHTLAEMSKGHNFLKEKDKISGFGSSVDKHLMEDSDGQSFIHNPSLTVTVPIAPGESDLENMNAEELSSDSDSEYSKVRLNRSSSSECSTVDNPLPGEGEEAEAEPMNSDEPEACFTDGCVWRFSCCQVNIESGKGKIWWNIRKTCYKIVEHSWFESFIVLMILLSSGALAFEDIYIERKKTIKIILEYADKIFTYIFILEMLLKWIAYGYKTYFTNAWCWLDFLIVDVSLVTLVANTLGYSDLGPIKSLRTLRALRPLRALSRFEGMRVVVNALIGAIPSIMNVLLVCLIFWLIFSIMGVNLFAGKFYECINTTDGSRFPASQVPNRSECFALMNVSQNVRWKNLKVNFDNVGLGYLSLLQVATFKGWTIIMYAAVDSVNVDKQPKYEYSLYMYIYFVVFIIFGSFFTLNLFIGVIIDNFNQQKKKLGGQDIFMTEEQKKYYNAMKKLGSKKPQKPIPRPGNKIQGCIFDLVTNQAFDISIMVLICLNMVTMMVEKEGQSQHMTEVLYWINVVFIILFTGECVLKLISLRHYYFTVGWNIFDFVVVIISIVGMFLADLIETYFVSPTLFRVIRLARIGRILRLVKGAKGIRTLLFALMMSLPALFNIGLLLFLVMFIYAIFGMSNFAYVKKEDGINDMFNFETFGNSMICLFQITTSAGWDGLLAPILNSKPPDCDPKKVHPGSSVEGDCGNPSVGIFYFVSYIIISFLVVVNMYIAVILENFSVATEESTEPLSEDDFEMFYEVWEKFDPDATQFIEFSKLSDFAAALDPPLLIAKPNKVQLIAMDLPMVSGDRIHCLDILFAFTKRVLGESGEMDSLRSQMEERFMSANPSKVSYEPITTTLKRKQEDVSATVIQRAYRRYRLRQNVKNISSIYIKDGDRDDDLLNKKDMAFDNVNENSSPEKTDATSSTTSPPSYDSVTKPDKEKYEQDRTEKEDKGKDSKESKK

On to `Cc1cccc(C)c1NC(=O)C[n+]1cccn1-c1ccccc1` [4′A, 2-(2-((2,6-dimethylphenyl)amino)-2-oxoethyl)-1-phenyl-1H-pyrazol-2-ium Formate], for which the inhibition at 10 µM at NaV1.7 [1] is > 65%. Further, the inhibition at 30 µM on NaV1.7 [2] was < 25%.
As for `Cc1cccc(C)c1NC(=O)C[n+]1cccn1C1CCCCC1.[Br-]` [Compound 3′A, 1-cyclohexyl-2-(2-((2,6-dimethylphenyl)amino)-2-oxoethyl)-1H-pyrazol-2-ium bromide], the Papp at 4 h, 50 µM in series [3] was ≤ 1.2 ×10⁻⁶ cm/s. The inhibition at 10 µM on NaV1.7 [1] is > 65%. Moreover, at NaV1.7 [2], the inhibition at 30 µM is < 25%.
Consider `CCNC(=O)Cn1ccc[n+]1CC(=O)Nc1c(C)cccc1C.[Br-]` [Compound 5′A, 2-(2-((2,6-dimethylphenyl)amino)-2-oxoethyl)-1-(2-(ethylamino)-2-oxoethyl)-1H-pyrazol-2-ium bromide], for which, in series [3], the apparent permeability (Papp) at 4 h, 50 µM is ≤ 1.2 ×10⁻⁶ cm/s. In addition, the inhibition at 10 µM on NaV1.7 [1] is > 65%. In addition, at NaV1.7 [2], the inhibition at 30 µM is < 25%.
On to `Cc1cccc(C)c1NC(=O)C[n+]1cccn1CC(C)C.[Br-]` [Compound 2′A, 2-(2-((2,6-dimethylphenyl)amino)-2-oxoethyl)-1-isobutyl-1H-pyrazol-2-ium bromide], for which the Papp at 4 h, 50 µM in series [3] is ≤ 1.2 ×10⁻⁶ cm/s. Also, at NaV1.7 [1], the inhibition at 10 µM is > 65%. Further, the inhibition at 30 µM at NaV1.7 [2] is < 25%.
With `Cc1cn(C)[n+](CC(=O)Nc2c(C)cccc2C)c1` [1′A, 2-(2-((2,6-dimethylphenyl)amino)-2-oxoethyl)-1,4-dimethyl-1H-pyrazol-2-ium bromide], at NaV1.7 [1], the inhibition at 10 µM is > 65%. For the same compound, the inhibition at 30 µM on NaV1.7 [2] is < 25%.
